Reference: patent US11053250B2, “Pyrrolo[1,2-b]pyridazine derivatives” (Gilead Sciences, Inc., priority 2018, dated 2021)

What was measured:
[1] = test system: TNFα; assay: IRAK4 Monocyte TNFα Cell Based Assay; conditions: cryopreserved human monocytes, LPS 50 pg/ml stimulation, TNFα by TR-FRET
Description: The cell suspension was then plated at a density of 5,000 cells/well onto black 384 well Greiner clear bottom plates. Plates were pre-spotted with test compounds and serially diluted in DMSO where 40 nL/well were delivered using the Echo 550 acoustic liquid dispenser (Labcyte®) for a final DMSO concentration of 0.1%. Plated cells were treated with compound for 1 hour at 37° C. Cells were then stimulated with 50 pg/ml of LPS (Sigma) excluding outside columns of plate used for unstimulated cell control wells. Cells were incubated for an additional 4 hours at 37° C. Cells were then spun out of the media and 5 μl of sample were taken and analyzed for total TNFα content using the TR-FRET Human TNFα detection system (CisBio). This system utilizes two labeled antibodies (cryptate and XL665) that bind to two different epitopes of the TNFα molecule and produce FRET signal proportional to the concentration of TNFα in the sample. Detection antibodies are mixed 50:50 and 5 μL were dispensed into each well. Plates were covered with clear seals and incubated at room temp overnight. The following morning plates were read using an Envision 2103 Multilabeled reader (PerkinElmer) with excitation/emission/FRET emission at 340 nm/615 nm/665 nm, respectively. Fluorescence intensities at 615 nm and 665 nm emission wavelengths were expressed as a ratio (665 nm/615 nm). Percent of control was calculated as follows: % Control=100×(RatioSample−Ratio0% stimulation)/(Ratio100% Stimulation−Ratio0% stimulation) where unstimulated cells (0% stimulation) were the negative control and stimulated cells (100% stimulation) were used as the positive control.

[2] = target: IRAK4 enzyme (Homo sapiens (Human), UniProt Q9NWZ3); assay: IRAK4 Biochemical Assay (TR-FRET/HTRF); conditions: 0.75 nM IRAK4, 500 μM ATP, STK1 peptide
Description: IRAK4 enzyme (Carna Biosciences, Chuo-ku, Kobe, Japan) activity was measured by detecting phosphorylated peptide substrate formation using an antibody against the phosphorylated peptide substrate. This is a time-resolved fluorescence resonance energy transfer (TR-FRET) immunoassay, based on the STK1 KinEASE Assay (Cisbio, Bedford, Mass.). The assay was designed as a simple two-step, endpoint assay (a 5 μl enzyme reaction followed by 5 μl stop and detect Solution) performed in ProxiPlate-384 Plus plates (Perkin Elmer, Waltham, Mass.). Staurosporine, a non-selective kinase inhibitor was used as a positive control. Compounds diluted in DMSO were spotted into 384 well plates using a Labcyte® Echo 550 Liquid Handling System prior to addition of IRAK4 enzyme and peptide substrate. Reaction solutions were delivered using a Multi-Flo (Bio-Tek Instruments). The enzyme and peptide solution was incubated with compound for 15 minutes at room temp before the reaction was initiated by the addition of ATP. The standard 5 μl reaction mixture contained 500 μM ATP, 2 μM peptide (STK1 Peptide), 0.75 nM of IRAK4 in reaction buffer (50 mM HEPES, pH 7.0, 0.02% NaN3, 0.01% BSA, 0.1 mM Orthovanadate, 5 mM MgCl2, 0.025% NP-40, 1 mM DTT). After 120 min of incubation at room temperature, 5 μl of Stop and Detect Solution (1:100 Cryptate labeled anti-phosphorylated peptide antibody solution and 125 nM Tracer in a 50 mM HEPES pH 7.0 detection buffer containing sufficient EDTA) was added. The plate was then further incubated for 60 minutes at room temperature and read on Envision 2103 Multilabeled reader (PerkinElmer) with excitation/emission/FRET emission at 340 nm/615 nm/665 nm, respectively. Fluorescence intensities at 615 nm and 665 nm emission wavelengths were expressed as a ratio (665 nm/615 nm). Percentage of inhibition was calculated as below: % Inhibition=100×(RatioSample−Ratio0% Inhibition)/(Ratio100% Inhibition−Ratio0% Inhibition)
The 0% inhibition value comes from control wells lacking inhibitor. The 100% inhibition value comes from control wells containing a saturating amount of known inhibitor staurosporine.

Chain of IRAK4 enzyme (Q9NWZ3 whole entry): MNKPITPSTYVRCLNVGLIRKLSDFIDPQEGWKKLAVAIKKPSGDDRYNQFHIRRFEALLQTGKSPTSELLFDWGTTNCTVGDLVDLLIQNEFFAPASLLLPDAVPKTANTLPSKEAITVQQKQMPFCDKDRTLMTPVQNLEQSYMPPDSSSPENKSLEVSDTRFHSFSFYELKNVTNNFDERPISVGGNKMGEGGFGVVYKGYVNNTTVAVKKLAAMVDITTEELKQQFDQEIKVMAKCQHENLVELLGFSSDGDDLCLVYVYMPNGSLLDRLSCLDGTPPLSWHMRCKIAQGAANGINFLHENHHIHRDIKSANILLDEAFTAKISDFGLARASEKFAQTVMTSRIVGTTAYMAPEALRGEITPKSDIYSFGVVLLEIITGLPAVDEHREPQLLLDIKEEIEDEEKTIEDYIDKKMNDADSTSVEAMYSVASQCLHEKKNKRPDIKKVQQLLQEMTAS

SMILES | EC50 ([1]; Monocyte) [nM] | IC50 [2] [nM] | EC50 [1] [nM]
CC(C)(O)[C@H](F)Cn1cc(-c2cnc(-c3ccc4cc(C#N)cnn34)cc2NC23CCC(N4CCOCC4)(CC2)CC3)nn1 [Compound 34, (R)-7-(5-(1-(2-fluoro-3-hydroxy-3-methylbutyl)-1H-1,2,3-triazol-4-yl)-4-((4-morpholinobicyclo[2.2.2]octan-1-yl)amino)pyridin-2-yl)pyrrolo[1,2-b]pyridazine-3-carbonitrile] | 6 | < 1 | 
CC(C)(O)[C@H](F)Cn1cc(-c2cnc(-c3ccc4cc(C#N)cnn34)cc2NC23CCC(N4CCOC4=O)(CC2)CC3)nn1 [Compound 35, (R)-7-(5-(1-(2-fluoro-3-hydroxy-3-methylbutyl)-1H-1,2,3-triazol-4-yl)-4-((4-(2-oxooxazolidin-3-yl)bicyclo[2.2.2]octan-1-yl)amino)pyridin-2-yl)pyrrolo[1,2-b]pyridazine-3-carbonitrile] | 3 | < 1 | 
CNc1cc(-c2ccc3cc(C#N)cnn23)ncc1-c1cn(C)nn1 [Compound 36, 7-(5-(1-methyl-1H-1,2,3-triazol-4-yl)-4-(methylamino)pyridin-2-yl)pyrrolo[1,2-b]pyridazine-3-carbonitrile] | 324 | 14 | 
CNc1cc(-c2ccc3cc(C#N)cnn23)ncc1-c1cn(C[C@@H](F)C(C)(C)O)nn1 [Compound 37, (R)-7-(5-(1-(2-fluoro-3-hydroxy-3-methylbutyl)-1H-1,2,3-triazol-4-yl)-4-(methylamino)pyridin-2-yl)pyrrolo[1,2-b]pyridazine-3-carbonitrile] | 28 | < 1 | 
CC(C)(O)[C@H](F)Cn1cc(-c2cnc(-c3ccc4cc(C#N)cnn34)cc2N[C@H]2CC[C@H](c3nncs3)CC2)nn1 [Compound 38, 7-(4-(((1r,4R)-4-(1,3,4-thiadiazol-2-yl)cyclohexyl)amino)-5-(1-((R)-2-fluoro-3-hydroxy-3-methylbutyl)-1H-1,2,3-triazol-4-yl)pyridin-2-yl)pyrrolo[1,2-b]pyridazine-3-carbonitrile] |  | < 1 | 6
COC(=O)NC[C@H]1C[C@H](Nc2cc(-c3ccc4cc(C#N)cnn34)ncc2-c2cn(C[C@@H](F)C(C)(C)O)nn2)C1 [Compound 39, methyl (((1R,3r)-3-((2-(3-cyanopyrrolo[1,2-b]pyridazin-7-yl)-5-(1-((R)-2-fluoro-3-hydroxy-3-methylbutyl)-1H-1,2,3-triazol-4-yl)pyridin-4-yl)amino)cyclobutyl)methyl)carbamate] |  | < 1 | 6
COC(=O)N1CCC(n2cc(-c3cnc(-c4ccc5cc(C#N)cnn45)cc3NC(C)C)nn2)CC1 [Compound 40, methyl 4-(4-(6-(3-cyanopyrrolo[1,2-b]pyridazin-7-yl)-4-(isopropylamino)pyridin-3-yl)-1H-1,2,3-triazol-1-yl)piperidine-1-carboxylate] | 84 | 1 | 
CC(C)Nc1cc(-c2ccc3cc(C#N)cnn23)ncc1-c1cn(C2CCN(S(C)(=O)=O)CC2)nn1 [Compound 41, 7-(4-(isopropylamino)-5-(1-(1-(methylsulfonyl)piperidin-4-yl)-1H-1,2,3-triazol-4-yl)pyridin-2-yl)pyrrolo[1,2-b]pyridazine-3-carbonitrile] | 70 | 1 | 
CC(=O)N1CCC(n2cc(-c3cnc(-c4ccc5cc(C#N)cnn45)cc3NC(C)C)nn2)CC1 [Compound 42, 7-(5-(1-(1-acetylpiperidin-4-yl)-1H-1,2,3-triazol-4-yl)-4-(isopropylamino)pyridin-2-yl)pyrrolo[1,2-b]pyridazine-3-carbonitrile] | 33 | 1 | 
CC(C)Nc1cc(-c2ccc3cc(C#N)cnn23)ncc1-c1cn(C2CCNCC2)nn1 [Compound 43, 7-(4-(isopropylamino)-5-(1-(piperidin-4-yl)-1H-1,2,3-triazol-4-yl)pyridin-2-yl)pyrrolo[1,2-b]pyridazine-3-carbonitrile] | 50 | < 1 | 
CC(C)Nc1cc(-c2ccc3cc(C#N)cnn23)ncc1-c1cn(CC(=O)N(C)C)nn1 [Compound 44, 2-(4-(6-(3-cyanopyrrolo[1,2-b]pyridazin-7-yl)-4-(isopropylamino)pyridin-3-yl)-1H-1,2,3-triazol-1-yl)-N,N-dimethylacetamide] | 61 | 1 | 

More lines, now with the values ahead:

EC50 ([1]; Monocyte) [nM] | IC50 [2] [nM] | EC50 [1] [nM] | SMILES
85 | 1 |  | CNC(=O)Cn1cc(-c2cnc(-c3ccc4cc(C#N)cnn34)cc2NC(C)C)nn1 [Compound 45, 2-(4-(6-(3-cyanopyrrolo[1,2-b]pyridazin-7-yl)-4-(isopropylamino)pyridin-3-yl)-1H-1,2,3-triazol-1-yl)-N-methylacetamide]
534 | 7 |  | CC(C)Nc1cc(-c2ccc3cc(C#N)cnn23)ncc1-c1cn(C2CCN(C(=O)OC(C)(C)C)CC2)nn1 [Compound 46, tert-butyl 4-(4-(6-(3-cyanopyrrolo[1,2-b]pyridazin-7-yl)-4-(isopropylamino)pyridin-3-yl)-1H-1,2,3-triazol-1-yl)piperidine-1-carboxylate]
33 | < 1 |  | CC(C)Nc1cc(-c2ccc3cc(C#N)cnn23)ncc1-c1cn(CCN2CCOCC2)nn1 [Compound 47, 7-(4-(isopropylamino)-5-(1-(2-morpholinoethyl)-1H-1,2,3-triazol-4-yl)pyridin-2-yl)pyrrolo[1,2-b]pyridazine-3-carbonitrile]
125 | 2 |  | COCCn1cc(-c2cnc(-c3ccc4cc(C#N)cnn34)cc2NC(C)C)nn1 [Compound 48, 7-(4-(isopropylamino)-5-(1-(2-methoxyethyl)-1H-1,2,3-triazol-4-yl)pyridin-2-yl)pyrrolo[1,2-b]pyridazine-3-carbonitrile]
30 | < 1 |  | CC(C)Nc1cc(-c2ccc3cc(C#N)cnn23)ncc1-c1cn(C[C@@H](F)C(C)(C)O)nn1 [Compound 49, (R)-7-(5-(1-(2-fluoro-3-hydroxy-3-methylbutyl)-1H-1,2,3-triazol-4-yl)-4-(isopropylamino)pyridin-2-yl)pyrrolo[1,2-b]pyridazine-3-carbonitrile]
238 | 4 |  | CC(C)Nc1cc(-c2ccc3cc(C#N)cnn23)ncc1-c1cn(CC(C)(C)O)nn1 [Compound 50, 7-(5-(1-(2-hydroxy-2-methylpropyl)-1H-1,2,3-triazol-4-yl)-4-(isopropylamino)pyridin-2-yl)pyrrolo[1,2-b]pyridazine-3-carbonitrile]
132 | < 1 |  | CC(C)Nc1cc(-c2ccc3cc(C#N)cnn23)ncc1-c1cn(C(C)C)nn1 [Compound 51, 7-(5-(1-isopropyl-1H-1,2,3-triazol-4-yl)-4-(isopropylamino)pyridin-2-yl)pyrrolo[1,2-b]pyridazine-3-carbonitrile]
95 | 3 |  | CC(C)Nc1cc(-c2ccc3cc(C#N)cnn23)ncc1-c1cn(-c2cccnc2)nn1 [Compound 52, 7-(4-(isopropylamino)-5-(1-(pyridin-3-yl)-1H-1,2,3-triazol-4-yl)pyridin-2-yl)pyrrolo[1,2-b]pyridazine-3-carbonitrile]
171 | 2 |  | CC(C)Nc1cc(-c2ccc3cc(C#N)cnn23)ncc1-c1cn(C2COC2)nn1 [Compound 53, 7-(4-(isopropylamino)-5-(1-(oxetan-3-yl)-1H-1,2,3-triazol-4-yl)pyridin-2-yl)pyrrolo[1,2-b]pyridazine-3-carbonitrile]
